According to the supplement of paper PMC8882468:

These molecules were tested on HCI-027 (organoid from a triple-negative breast cancer xenograft) (assay: CTG-3D luminescence at 96 h relative to day-0 seeding control (ratio to day 0); higher = more growth / less cytotoxicity; PDxO 3D drug screen, 96 h, CTG-3D normalised to day-0 seeding control.). Conditions: 0.005 µM; days in culture: 201.

Row | SMILES | CTG-3D luminescence at 96 h
1 | O=C(O)C1(C(=O)O)CCC1.[NH2-].[NH2-].[Pt+2] [carboplatin] | 2.09
2 | COc1cc2c(Oc3ccc4[nH]c(C)cc4c3F)ncnc2cc1OCCCN1CCCC1 [cediranib] | 1.78
3 | C[C@@H]1COCCN1c1cc(C2([S@](C)(=N)=O)CC2)nc(-c2cc[nH]c3nccc2-3)n1 [ceralasertib] | 1.99
4 | Cc1cc(Nc2ncc(Cl)c(Nc3ccccc3S(=O)(=O)C(C)C)n2)c(OC(C)C)cc1C1CCNCC1 [ceritinib] | 1.65
5 | O=C(c1ccc(F)c(F)c1Nc1ccc(I)cc1F)N1CC(O)([C@@H]2CCCCN2)C1 [cobimetinib] | 1.63
6 | C[C@H](NC(=O)CCC(F)(F)F)C(=O)N[C@@H]1C(=O)N(CCO)c2ncccc2-c2ccccc21 [crenigacestat] | 1.26
7 | COc1cccc2c1C(=O)c1c(O)c3c(c(O)c1C2=O)C[C@@](O)(C(=O)CO)C[C@@H]3O[C@H]1C[C@H](N)[C@H](O)[C@H](C)O1 [doxorubicin] | 1.79
8 | C[C@]12CC[C@@H]3c4ccc(O)cc4C[C@@H](CCCCCCCCC[S+]([O-])CCCC(F)(F)C(F)(F)F)[C@H]3[C@@H]1CC[C@@H]2O (some centres not stated) [fulvestrant] | 2.87
9 | Nc1ccn([C@@H]2O[C@H](CO)[C@@H](O)C2(F)F)c(=O)n1 [gemcitabine] | 0.658

Same assay, conditions: 0.1 µM; days in culture: 176

Row | SMILES | CTG-3D luminescence at 96 h
10 | O=C(O)C1(C(=O)O)CCC1.[NH2-].[NH2-].[Pt+2] [carboplatin] | 1.68
11 | COc1cc2c(Oc3ccc4[nH]c(C)cc4c3F)ncnc2cc1OCCCN1CCCC1 [cediranib] | 1.46
12 | C[C@@H]1COCCN1c1cc(C2([S@](C)(=N)=O)CC2)nc(-c2cc[nH]c3nccc2-3)n1 [ceralasertib] | 1.47
13 | Cc1cc(Nc2ncc(Cl)c(Nc3ccccc3S(=O)(=O)C(C)C)n2)c(OC(C)C)cc1C1CCNCC1 [ceritinib] | 1.68
14 | O=C(c1ccc(F)c(F)c1Nc1ccc(I)cc1F)N1CC(O)([C@@H]2CCCCN2)C1 [cobimetinib] | 1.13
15 | C[C@H](NC(=O)CCC(F)(F)F)C(=O)N[C@@H]1C(=O)N(CCO)c2ncccc2-c2ccccc21 [crenigacestat] | 0.198
16 | COc1cccc2c1C(=O)c1c(O)c3c(c(O)c1C2=O)C[C@@](O)(C(=O)CO)C[C@@H]3O[C@H]1C[C@H](N)[C@H](O)[C@H](C)O1 [doxorubicin] | 0.162
17 | C[C@]12CC[C@@H]3c4ccc(O)cc4C[C@@H](CCCCCCCCC[S+]([O-])CCCC(F)(F)C(F)(F)F)[C@H]3[C@@H]1CC[C@@H]2O (some centres not stated) [fulvestrant] | 2.3
18 | Nc1ccn([C@@H]2O[C@H](CO)[C@@H](O)C2(F)F)c(=O)n1 [gemcitabine] | 0.363

Same assay, conditions: 0.1 µM; days in culture: 194

Row | SMILES | CTG-3D luminescence at 96 h
19 | O=C(O)C1(C(=O)O)CCC1.[NH2-].[NH2-].[Pt+2] [carboplatin] | 1.9
20 | COc1cc2c(Oc3ccc4[nH]c(C)cc4c3F)ncnc2cc1OCCCN1CCCC1 [cediranib] | 1.94
21 | C[C@@H]1COCCN1c1cc(C2([S@](C)(=N)=O)CC2)nc(-c2cc[nH]c3nccc2-3)n1 [ceralasertib] | 1.62
22 | Cc1cc(Nc2ncc(Cl)c(Nc3ccccc3S(=O)(=O)C(C)C)n2)c(OC(C)C)cc1C1CCNCC1 [ceritinib] | 1.96
23 | O=C(c1ccc(F)c(F)c1Nc1ccc(I)cc1F)N1CC(O)([C@@H]2CCCCN2)C1 [cobimetinib] | 1.42
24 | C[C@H](NC(=O)CCC(F)(F)F)C(=O)N[C@@H]1C(=O)N(CCO)c2ncccc2-c2ccccc21 [crenigacestat] | 0.251
25 | COc1cccc2c1C(=O)c1c(O)c3c(c(O)c1C2=O)C[C@@](O)(C(=O)CO)C[C@@H]3O[C@H]1C[C@H](N)[C@H](O)[C@H](C)O1 [doxorubicin] | 0.308
26 | C[C@]12CC[C@@H]3c4ccc(O)cc4C[C@@H](CCCCCCCCC[S+]([O-])CCCC(F)(F)C(F)(F)F)[C@H]3[C@@H]1CC[C@@H]2O (some centres not stated) [fulvestrant] | 1.78
27 | Nc1ccn([C@@H]2O[C@H](CO)[C@@H](O)C2(F)F)c(=O)n1 [gemcitabine] | 0.145

Same assay, conditions: 0.1 µM; days in culture: 201

Row | SMILES | CTG-3D luminescence at 96 h
28 | O=C(O)C1(C(=O)O)CCC1.[NH2-].[NH2-].[Pt+2] [carboplatin] | 2.08
29 | COc1cc2c(Oc3ccc4[nH]c(C)cc4c3F)ncnc2cc1OCCCN1CCCC1 [cediranib] | 1.87
30 | C[C@@H]1COCCN1c1cc(C2([S@](C)(=N)=O)CC2)nc(-c2cc[nH]c3nccc2-3)n1 [ceralasertib] | 2.1
31 | Cc1cc(Nc2ncc(Cl)c(Nc3ccccc3S(=O)(=O)C(C)C)n2)c(OC(C)C)cc1C1CCNCC1 [ceritinib] | 1.66
32 | O=C(c1ccc(F)c(F)c1Nc1ccc(I)cc1F)N1CC(O)([C@@H]2CCCCN2)C1 [cobimetinib] | 1.68
33 | C[C@H](NC(=O)CCC(F)(F)F)C(=O)N[C@@H]1C(=O)N(CCO)c2ncccc2-c2ccccc21 [crenigacestat] | 0.249
34 | COc1cccc2c1C(=O)c1c(O)c3c(c(O)c1C2=O)C[C@@](O)(C(=O)CO)C[C@@H]3O[C@H]1C[C@H](N)[C@H](O)[C@H](C)O1 [doxorubicin] | 0.325
35 | C[C@]12CC[C@@H]3c4ccc(O)cc4C[C@@H](CCCCCCCCC[S+]([O-])CCCC(F)(F)C(F)(F)F)[C@H]3[C@@H]1CC[C@@H]2O (some centres not stated) [fulvestrant] | 2.64
36 | Nc1ccn([C@@H]2O[C@H](CO)[C@@H](O)C2(F)F)c(=O)n1 [gemcitabine] | 0.204

Same assay, conditions: 1 µM; days in culture: 176

Row | SMILES | CTG-3D luminescence at 96 h
37 | O=C(O)C1(C(=O)O)CCC1.[NH2-].[NH2-].[Pt+2] [carboplatin] | 2.42
38 | COc1cc2c(Oc3ccc4[nH]c(C)cc4c3F)ncnc2cc1OCCCN1CCCC1 [cediranib] | 2.56
39 | C[C@@H]1COCCN1c1cc(C2([S@](C)(=N)=O)CC2)nc(-c2cc[nH]c3nccc2-3)n1 [ceralasertib] | 0.682
40 | Cc1cc(Nc2ncc(Cl)c(Nc3ccccc3S(=O)(=O)C(C)C)n2)c(OC(C)C)cc1C1CCNCC1 [ceritinib] | 1.81
41 | O=C(c1ccc(F)c(F)c1Nc1ccc(I)cc1F)N1CC(O)([C@@H]2CCCCN2)C1 [cobimetinib] | 1.04
42 | C[C@H](NC(=O)CCC(F)(F)F)C(=O)N[C@@H]1C(=O)N(CCO)c2ncccc2-c2ccccc21 [crenigacestat] | 0.179
43 | COc1cccc2c1C(=O)c1c(O)c3c(c(O)c1C2=O)C[C@@](O)(C(=O)CO)C[C@@H]3O[C@H]1C[C@H](N)[C@H](O)[C@H](C)O1 [doxorubicin] | 0.0301
44 | C[C@]12CC[C@@H]3c4ccc(O)cc4C[C@@H](CCCCCCCCC[S+]([O-])CCCC(F)(F)C(F)(F)F)[C@H]3[C@@H]1CC[C@@H]2O (some centres not stated) [fulvestrant] | 2.57
45 | Nc1ccn([C@@H]2O[C@H](CO)[C@@H](O)C2(F)F)c(=O)n1 [gemcitabine] | 0.366

Same assay, conditions: 1 µM; days in culture: 194

Row | SMILES | CTG-3D luminescence at 96 h
46 | O=C(O)C1(C(=O)O)CCC1.[NH2-].[NH2-].[Pt+2] [carboplatin] | 2.15
47 | COc1cc2c(Oc3ccc4[nH]c(C)cc4c3F)ncnc2cc1OCCCN1CCCC1 [cediranib] | 2.13
48 | C[C@@H]1COCCN1c1cc(C2([S@](C)(=N)=O)CC2)nc(-c2cc[nH]c3nccc2-3)n1 [ceralasertib] | 0.748
49 | Cc1cc(Nc2ncc(Cl)c(Nc3ccccc3S(=O)(=O)C(C)C)n2)c(OC(C)C)cc1C1CCNCC1 [ceritinib] | 1.8
50 | O=C(c1ccc(F)c(F)c1Nc1ccc(I)cc1F)N1CC(O)([C@@H]2CCCCN2)C1 [cobimetinib] | 1.56
51 | C[C@H](NC(=O)CCC(F)(F)F)C(=O)N[C@@H]1C(=O)N(CCO)c2ncccc2-c2ccccc21 [crenigacestat] | 0.276
52 | COc1cccc2c1C(=O)c1c(O)c3c(c(O)c1C2=O)C[C@@](O)(C(=O)CO)C[C@@H]3O[C@H]1C[C@H](N)[C@H](O)[C@H](C)O1 [doxorubicin] | 0.0306
53 | C[C@]12CC[C@@H]3c4ccc(O)cc4C[C@@H](CCCCCCCCC[S+]([O-])CCCC(F)(F)C(F)(F)F)[C@H]3[C@@H]1CC[C@@H]2O (some centres not stated) [fulvestrant] | 2.32
54 | Nc1ccn([C@@H]2O[C@H](CO)[C@@H](O)C2(F)F)c(=O)n1 [gemcitabine] | 0.284

Same assay, conditions: 1 µM; days in culture: 201

Row | SMILES | CTG-3D luminescence at 96 h
55 | O=C(O)C1(C(=O)O)CCC1.[NH2-].[NH2-].[Pt+2] [carboplatin] | 2.19
56 | COc1cc2c(Oc3ccc4[nH]c(C)cc4c3F)ncnc2cc1OCCCN1CCCC1 [cediranib] | 2.39
57 | C[C@@H]1COCCN1c1cc(C2([S@](C)(=N)=O)CC2)nc(-c2cc[nH]c3nccc2-3)n1 [ceralasertib] | 0.726
58 | Cc1cc(Nc2ncc(Cl)c(Nc3ccccc3S(=O)(=O)C(C)C)n2)c(OC(C)C)cc1C1CCNCC1 [ceritinib] | 1.47
59 | O=C(c1ccc(F)c(F)c1Nc1ccc(I)cc1F)N1CC(O)([C@@H]2CCCCN2)C1 [cobimetinib] | 0.995
60 | C[C@H](NC(=O)CCC(F)(F)F)C(=O)N[C@@H]1C(=O)N(CCO)c2ncccc2-c2ccccc21 [crenigacestat] | 0.206
61 | COc1cccc2c1C(=O)c1c(O)c3c(c(O)c1C2=O)C[C@@](O)(C(=O)CO)C[C@@H]3O[C@H]1C[C@H](N)[C@H](O)[C@H](C)O1 [doxorubicin] | 0.0185
62 | C[C@]12CC[C@@H]3c4ccc(O)cc4C[C@@H](CCCCCCCCC[S+]([O-])CCCC(F)(F)C(F)(F)F)[C@H]3[C@@H]1CC[C@@H]2O (some centres not stated) [fulvestrant] | 2.56
63 | Nc1ccn([C@@H]2O[C@H](CO)[C@@H](O)C2(F)F)c(=O)n1 [gemcitabine] | 0.136

Same assay, conditions: 10 µM; days in culture: 176

Row | SMILES | CTG-3D luminescence at 96 h
64 | O=C(O)C1(C(=O)O)CCC1.[NH2-].[NH2-].[Pt+2] [carboplatin] | 1.35
65 | COc1cc2c(Oc3ccc4[nH]c(C)cc4c3F)ncnc2cc1OCCCN1CCCC1 [cediranib] | 0.0266
66 | C[C@@H]1COCCN1c1cc(C2([S@](C)(=N)=O)CC2)nc(-c2cc[nH]c3nccc2-3)n1 [ceralasertib] | 0.114
67 | Cc1cc(Nc2ncc(Cl)c(Nc3ccccc3S(=O)(=O)C(C)C)n2)c(OC(C)C)cc1C1CCNCC1 [ceritinib] | 0.00647
68 | O=C(c1ccc(F)c(F)c1Nc1ccc(I)cc1F)N1CC(O)([C@@H]2CCCCN2)C1 [cobimetinib] | 0.17
69 | C[C@H](NC(=O)CCC(F)(F)F)C(=O)N[C@@H]1C(=O)N(CCO)c2ncccc2-c2ccccc21 [crenigacestat] | 0.173
70 | COc1cccc2c1C(=O)c1c(O)c3c(c(O)c1C2=O)C[C@@](O)(C(=O)CO)C[C@@H]3O[C@H]1C[C@H](N)[C@H](O)[C@H](C)O1 [doxorubicin] | 0.0198
71 | C[C@]12CC[C@@H]3c4ccc(O)cc4C[C@@H](CCCCCCCCC[S+]([O-])CCCC(F)(F)C(F)(F)F)[C@H]3[C@@H]1CC[C@@H]2O (some centres not stated) [fulvestrant] | 1.77
72 | Nc1ccn([C@@H]2O[C@H](CO)[C@@H](O)C2(F)F)c(=O)n1 [gemcitabine] | 0.298
